Experiments:
human CCR4 = biological target: T1, human CCR4 (Homo sapiens, UniProt P51679); test: Inhibition of MDC-induced transient Ca ion increase in CCR4/CHO cells; type: cell-based; settings: human CCR4 stably overexpressing CHO cell; recombinant human MDC 10 nM; read-out: IC50 value, inhibition of Ca2+ transient increase by MDC
T1 construct: expressed in transfected cells; host or cells: CHO-dhfr(-)
T1 sequence (P51679 1-360): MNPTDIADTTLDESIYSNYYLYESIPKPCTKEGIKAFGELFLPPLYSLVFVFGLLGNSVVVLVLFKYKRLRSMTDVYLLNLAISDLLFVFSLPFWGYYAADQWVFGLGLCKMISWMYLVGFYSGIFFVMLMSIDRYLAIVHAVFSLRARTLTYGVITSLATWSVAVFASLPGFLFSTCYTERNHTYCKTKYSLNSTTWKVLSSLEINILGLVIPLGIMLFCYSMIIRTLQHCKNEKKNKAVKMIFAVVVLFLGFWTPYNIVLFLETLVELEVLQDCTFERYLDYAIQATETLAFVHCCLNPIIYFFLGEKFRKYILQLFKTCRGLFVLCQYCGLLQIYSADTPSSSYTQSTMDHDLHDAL
Procedure: 1-1: Isolation of Human CCR4 Gene
Human bone marrow cell cDNA was prepared using Marathon cDNA amplification kit (manufactured by Clontech). PCR primers hCCR4XbaI-F1 (SEQ ID NO:1) and hCCR4XbaI-R1 (SEQ ID NO:2) were designed based on the sequence of GenBankX85740.
Using the human bone marrow cell cDNA as the template and using Ex Taq (manufactured by Takara), a PCR reaction (2 minutes at 95° C.→[30 seconds at 95° C., 45 seconds at 60° C., 1 minute at 72° C.]×35 times) was carried out. The thus amplified PCR product was subjected to 1% agarose gel electrophoresis, purified using QIAquick Gel Extraction Kit (manufactured by QUIAGEN) and then digested with a restriction enzyme Xbal. […]
The thus established human CCR4 stably overexpressing CHO cell (CCR4/CHO cell) was suspended in Ham's F-12 medium and FBS (10%) and dispensed into a 96-well plate at 3.0×10^4 cells/well. […] Transient increase in the intracellular Ca^2+ concentration induced by the human MDC was measured using a Ca^2+ detector for 96-well (manufactured by Hamamatsu Photonics), and inhibition ratio (%) of the test compound was calculated by the following equation: Inhibition ratio=[(Ec−Ea)/Ec]×100 • Ec: measured value of Ca^2+ transient increase by MDC; and • Ea: measured value of Ca^2+ transient increase by MDC when a test compound was added […]

TNFα = test: Mouse TNFα production model by LPS stimulation; type: in vivo; settings: mouse C57BL/6, oral, dose of 100 mg/kg, LPS 60 mg/kg i.p.
Procedure: 5-1: Mouse TNFα Production Model by LPS Stimulation
The present compound suspended in a medium, was orally applied to a mouse (male, C57BL/6), and after 0.5 hour, lipipolysaccharide (LPS, 055:B5, Sigma) was peritoneally administered to the mouse at a dose of 60 mg/kg. To the control groups was orally applied only the medium. Sixty minutes after LPS treatment, heparin-added blood collection was conducted from the abdominal vena cava under ether anesthesia, and centrifuged (12,000 r.p.m.) at 4° C. for 3 minutes, to give the plasma. The thus obtained plasma sample was stored at −80° C. before use. TNFα in the plasma was quantified using an ELISA kit (R&D systems).

[1] = system: leukocyte infiltration into the lung; test: Mouse OVA-induced asthma model; type: in vivo; settings: mouse C57BL/6, oral, dose of 30 mg/kg
Procedure: 3-1: Mouse OVA-Induced Asthma Model Ovalbumin (OVA, 0.2 mg/mL) and Alum (8 mg/mL) prepared in physiological saline were intraperitoneally administered (500 μL) to the mouse (male, C57BL/6) on Day 1 (test starting day) and Day 8 (1 week thereafter), to sensitize the mouse. On Days 15 to 21, the mouse was taken to an inhalation chamber (W: 240 mm×L: 240 mm×H: 120 mm), and a 2% OVA solution was sprayed with an ultrasonic wave type nebulizer (NE-U12, manufactured by Omron) for 20 minutes, to thus conduct induction. The compound of the present invention suspended in a medium, was administered orally at 30 minutes before OVA sensitization on Day 8 and at 30 minutes before OVA induction on Days 15 to 21. To the control group was administered only the medium. Three hours after OVA inhalation on Day 21, the mouse was exsanguinated, the catheter tube was inserted into the trachea, and the lung was washed with heparin-containing physiological saline (10 U/ml), to give a bronchoalveolar lavage fluid (BALF). Leukocyte number in BALF was counted using hemocyte counter (SF-3000, manufactured by Sysmex).

auricle swelling [2] = test: Mouse dermatitis model to which hapten is continuously applied (TNCB); type: in vivo; settings: mouse Balb/c, repeated TNCB, applied to ear at a concentration of 5%
Procedure: 4-2: Mouse Dermatitis Model to which Hapten is Applied
To the auricle (both sides of the right ear) of the mouse (male, Balb/c), 1% (w/v) TNCB solution (acetone:olive oil=4:1) (20 μL) was applied to conduct first sensitization. Seven days after sensitization, 1% (w/v) TNCB (acetone:olive oil=4:1) (20 μL) was applied to the mouse auricle, to conduct induction (Day 0). Furthermore, on Days 2, 4, 6, 8, 10, 12, 14 and 16, the same procedure as on Day 0 was repeated. The compound of the present invention was dissolved in a medium, applied to both sides of the right ear (20 μL) 2 hours before applying TNCB. To the control groups, was applied only the medium. Right after the administration of the compound and 24 hours after TNCB application, the thickness of the mouse auricle was measured with Dialthickness gauge (manufactured by Ozaki Seisakusho), which was used as indicator for efficacy in mouse dermatitis model to which hapten was continuously applied.

CCRF-CEM cell = test: Inhibition of MDC-induced T cell strain (CCRF-CEM cell) migration; type: cell-based; settings: 4 hours
Procedure: Biological Example 2: Activity on cell migration stimulated by MDC 2-1: Inhibition tests on MDC-induced T cell strain (CCRF-CEM cell) migration A medium (0.3 mL) containing or free of MDC (20 nM, manufactured by PeproTech) was added to the lower chamber of 24-transwell plate, and further a medium (0.3 mL) containing a test compound solution of 2-fold concentration (containing 0.02% dimethylsulfoxide (DMSO)) or a medium (0.3 mL) containing DMSO only was added thereto. To the upper chamber, CCRF-CEM cell suspension prepared in 1×10^6 cells/50 μl and the test compound solution of 2-fold concentration (0.05 m]L) were added. The test was initiated by superimpose the upper chamber on the lower chamber. The chambers were incubated in a carbon gas incubator (5% CO2, 95% humidity) kept at 37° C. for 4 hours, and the cells remaining in the upper chamber were sucked up and removed. Then, 0.1 ml of a buffer (phosphate-buffered saline (PBS) containing ethylenediamine tetra-acetate sodium (EDTA) (20 μM) was added thereto, and subjected- to reaction at 4° C. for 30 minutes. The transwell plate was centrifuged (1000 r.p.m.) for 5 minutes, and the incubation liquid (600 μL) in the lower chamber was collected, and the cell number was counted using Flow Cytometer (manufactured by Becton-Dickinson). […]

auricle swelling [3] = test: Mouse DTH model (TNCB); type: in vivo; settings: mouse Balb/c, applied to ear at a concentration of 5%, 24 hours after TNCB
Procedure: The mouse (male, Balb/c) was shaved on the abdomen with hair clippers, and to the abdomen was applied ethanol solution (100 μL) of 7% (w/v) 2,4,6-trinitrochlrobenzene (TNCB), to sensitize the mouse. Seven days after sensitization, a 1% (w/v) TNCB solution in olive oil (20 μL) was applied to the auricle of the mouse (both sides of the right ear), to conduct induction. The present compound dissolved in a medium, was applied to both sides of the right ear (20 μL) 2 hours before applying TNCB. To the control groups, was applied only the medium. Right after the administration of the compound and 24 hours after TNCB application, the thickness of the mouse auricle was measured with Dialthickness gauge (manufactured by Ozaki Seisakusho), which was used as indicator for efficacy in mouse DTH model.

In the case of `Cc1ccc(S(=O)(=O)Nc2ncc(Br)nc2OCc2cccnc2)cc1` [Example 1(1), 6-bromo-2-((pyridin-3-yl)methyloxy)-3-(4-methylphenylsulfonylamino)pyrazine], the IC50 (human CCR4) is reported as 130 nM and the “TNFα production by LPS stimulation (plasma TNFα)” value (TNFα) is reported as “suppressed TNFα production by LPS stimulation”.

In the case of `COc1ccc(COc2nc(Br)cnc2NS(=O)(=O)c2ccc(C)cc2)cc1OC` [Example 1(2), 6-bromo-2-((3,4-dimethoxyphenyl)methyloxy)-3-(4-methylphenylsulfonylamino)pyrazine], the IC50 (human CCR4) is reported as 16 nM.

In the case of `COc1ccc(COc2nc(Br)cnc2NS(=O)(=O)c2ccc(C)cc2)cc1OCCN(C)C` [Example 1(3), 6-bromo-2-((3-(2-dimethylaminoethyloxy)-4-methoxyphenyl)methyloxy)-3-(4-methylphenylsulfonylamino)pyrazine], the “leukocyte infiltration into the lung (leukocyte number in BALF)” value [1] is reported as “suppressed leukocyte infiltration into the lung” and the auricle swelling (auricle swelling [2]) is reported as “suppressed the auricle swelling”.

In the case of `COc1ccc(COc2nc(C)cnc2NS(=O)(=O)c2ccc(C)cc2)cc1OCCN(C)C` [Example 6(1), 6-methyl-2-((3-(2-dimethylaminoethyloxy)-4-methoxyphenyl)methyloky)-3-(4-methylphenylsulfonylamino)pyrazine], the IC50 (CCRF-CEM cell) is reported as 10 nM and the auricle swelling (auricle swelling [3]) is reported as “suppressed the auricle swelling”.

Reference: patent publication US20060004010A1, “Ccr4 antagonist and medical use thereof” (priority 2002, published 2006)
